Measured values as given in patent US10882854B2, “Heterocyclic compounds and use thereof” (National Health Research Institutes, priority 2017, dated 2021).

Columns and labels:
HCC cell line HCA-1 = assay: Syngeneic orthotopic hepatocellular carcinoma (HCC) mouse model; format: in vivo, C3H mice; conditions: C3H mice with orthotopic HCA-1; 10 mg/kg/day by osmotic pump for two weeks, combined with sorafenib 40 mg/kg daily; control about 400 mm^3
Experimental: The efficacy of a compound of Formula (I), i.e., Compounds 42, in treating HCC was assessed using a syngeneic mouse model as follows.
C3H mouse-derived HCC cell line HCA-1 was used. HCA-1 cells were orthotopically implanted in C3H mice for 10 days. The mice were subsequently treated with sorafenib (a small molecule drug for treating hepatocellular carcinoma; 40 mg/kg) daily for two weeks or treated with vehicle (PBS) alone as a control. Tested compounds, e.g., AMD3100 (10 mg/kg/day) and Compound 42 (10 mg/kg/day), were each administered continuously to those mice treated with sorafenib using an Alzet osmotic pump (DURECT Corporation, Cupertino, Calif.) for two weeks.

[1] = tested on: T-cell acute lymphoblastic leukemia (CCRF-CEM) cells; assay: Inhibition of CXCL12-induced chemotaxis in lymphoblastic leukemia cells; format: cell-based; conditions: Homo sapiens, CXCL12 10 nM, 2.5 h at 37 °C, read-out: concentration required to inhibit chemotaxis by 50% (EC50)
Experimental: The response of cancer cells to compounds of Formula (I) was evaluated using the chemotaxis assay as set forth below.
T-cell acute lymphoblastic leukemia (CCRF-CEM) cells in Roswell Park Memorial Institute medium (RPMI) 1640 supplemented with 10% […] were incubated with 250 μL of a test compound. The assay was performed using Millicell Hanging Cell Culture Inserts (pore size 5 μm; 24-well plate; Millipore, Bedford, Mass., USA). After 10 minutes at 37° C., 250 μL of cells pre-incubated with a test compound were plated per well in the upper chambers of the inserts at a density of 2.5×10^5 cells/well. 300 μL/well medium containing CXCL12 (10 nM) and a test compound were plated in the lower chamber of the insert. After 2.5 h at 37° C., cells in both chambers of inserts were measured by flow cytometry (Guava Technologies, Hayward, Calif., USA).

human CXCR4 = biological target: T1, human CXCR4 (Homo sapiens, UniProt P61073); assay: Inhibition of 125I-CXCL12 radioligand binding, membranes of human CXCR4-transfected HEK293 cells; conditions: 0.16 nM 125I-CXCL12, 60 min at 30 °C, read-out: concentration required to inhibit binding of 125I-CXCL12 to CXCR4 by 50% (IC50)
T1 construct: expressed in transfected cells; host or cells: HEK293 cells (membranes)
T1 sequence (P61073 whole entry): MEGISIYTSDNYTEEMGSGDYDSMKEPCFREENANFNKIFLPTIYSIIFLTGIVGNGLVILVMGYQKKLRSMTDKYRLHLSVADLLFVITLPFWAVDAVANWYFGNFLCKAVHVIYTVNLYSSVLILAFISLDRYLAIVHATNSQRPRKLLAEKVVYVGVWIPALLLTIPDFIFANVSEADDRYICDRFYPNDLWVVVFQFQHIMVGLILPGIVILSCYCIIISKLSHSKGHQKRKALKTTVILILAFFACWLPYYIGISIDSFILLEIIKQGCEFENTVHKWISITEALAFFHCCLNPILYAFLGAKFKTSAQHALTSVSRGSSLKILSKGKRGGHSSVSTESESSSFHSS
Experimental: Binding competition between the compounds of Formula (I) and human CXCL12 was assessed using a radioligand binding assay as described below.
Membranes (2-4 μg) prepared from human CXCR4-transfected HEK293 cells in 40 μL of assay buffer (50 mM HEPES-NaOH, pH 7.4, 100 mM NaCl, 5 mM MgCl2, 1 mM CaCl2, 0.5% bovine serum albumin) were incubated with 20 μL of radio-labeled ^125I-CXCL12 (0.16 nM) and 20 μL of a test compound in an assay plate (Costar Corning, Cambridge, Mass.). After 60 minutes at 30° C., the incubation was terminated by transferring the resulting reaction mixture to a 96-well GF/B filter plate (Millipore Corp., Billerica, Mass.) and filtered via a manifold. The plate was washed with 100 μL of ice-cold wash buffer (50 mM HEPES-NaOH, pH 7.4, 100 mM NaCl) four times. The radioactivity bound to the filter was measured by Topcount (PerkinElmer Inc., Waltham, Mass.).

[2] = tested on: acute Kidney Injury (AKI) model; assay: Ischemia-reperfusion acute kidney injury (AKI) model in rats; format: in vivo, male Sprague-Dawley rats; conditions: 6 mg/Kg subcutaneous 40 min before AKI, blood 24 h after induction of AKI
Experimental: The efficacy of five compounds of Formula (I) in treating Ischemia-Reperfusion injury was assessed using both an acute kidney injury model, an ischemic stroke model, and a limb ischemia model. These five compounds are Compounds 13, 35, 40, 45, and 46. In an acute Kidney Injury (AKI) model, each of the five compounds was dissolved in saline to form a solution. The solution was administered to male Sprague-Dawley rats (National Laboratory Animal Center, Taipei, Taiwan) subcutaneously at a dosage of 6 mg/Kg. 40 minutes after the subcutaneous injection, AKI was induced in the rats by clamping their bilateral renal vein and artery for one hour followed by releasing the vessel clips to allow 24-h reperfusion. Whole blood was collected at 24-h after induction of AKI. Blood urea nitrogen (BUN) and serum creatinine (Scr), two markers that increase upon kidney injury, were measured using a FUJI DRI-CHEM 3500s analyzer (Fujifilm, Tokyo, Japan). Non-AKI rats and AKI rats treated with saline were used as controls.

[3] = tested on: Hematopoietic stem cells (CD34+) and endothelial progenitor cells (CD133+); assay: Mobilization of stem/progenitor cells into peripheral blood in mice; format: in vivo, C57BL/6 male mice

Structure (SMILES) | tumor size (HCC cell line HCA-1) | EC50 [1] [µM] | IC50 (human CXCR4) [µM] | BUN level relative to that induced in saline-treated AKI rats [2] [%] | Scr (serum creatinine) level relative to that induced in saline-treated AKI rats [2] [%] | hematopoietic stem cell mobilization combined with G-CSF (CFU-GM numbers) [3]
c1cc(CN2CCCNCCNCCCNCC2)ccc1CN1CCCNCCNCCCNCC1 [AMD3100, reference compound] | about 250 mm^3 |  |  |  |  | 
c1ccc2c(NC3CCNCC3)nc(NCc3nnn(CCCNCCCNC4CCCCC4)n3)nc2c1 [Compound 13] |  | < 0.05 | < 0.05 | 25 | 56 | 
Cc1cc(NC2CCNCC2)nc(NCc2nnc(CCCNCCCNC3CCCCC3)o2)n1 [Compound 20] |  | < 0.05 | 0.05 to 0.1 |  |  | 
Cc1cc(NC2CCNCC2)nc(NCc2nnc(CCCNCCCNC3CCCCC3)s2)n1 [Compound 21] |  | < 0.05 | < 0.05 |  |  | 
Cc1cc(NC2CCNCC2)nc(NCCc2cn(CCCCNCCCNC3CCCCC3)cn2)n1 [Compound 22] |  | < 0.05 | 0.05 to 0.1 |  |  | 
Cc1cc(NC2CCNCC2)nc(NCc2nnn(CCCNCCCNC3CCCCC3)n2)n1 [Compound 23] |  | < 0.05 | < 0.05 |  |  | 
Cc1cc(NC2CCNCC2)nc(NCc2nnc(CCCNCCCNC3CCCCC3)[nH]2)n1 [Compound 24] |  | < 0.05 | 0.05 to 0.1 |  |  | 
CCc1cc(NC2CCNCC2)nc(NCc2nnn(CCCNCCCNC3CCCCC3)n2)n1 [Compound 26] |  | < 0.05 | 0.05 to 0.1 |  |  | 
N[C@@H](CCC(=O)N1CCC(Nc2nc(NCc3cc(CCCNCCCNC4CCCCC4)on3)nc3ccccc23)CC1)C(=O)O [Compound 29] |  | < 0.05 | < 0.05 |  |  | 
N[C@@H](CCC(=O)N1CCC(Nc2nc(NCc3coc(CCCNCCCNC4CCCCC4)n3)nc3ccccc23)CC1)C(=O)O [Compound 30] |  | < 0.05 | < 0.05 |  |  | 
N[C@@H](CCC(=O)N1CCC(Nc2nc(NCc3nc(CCCNCCCNC4CCCCC4)cs3)nc3ccccc23)CC1)C(=O)O [Compound 31] |  | < 0.05 | 0.05 to 0.1 |  |  | 
N[C@@H](CCC(=O)N1CCC(Nc2nc(NCc3nc(CCCNCCCNC4CCCCC4)co3)nc3ccccc23)CC1)C(=O)O [Compound 32] |  | < 0.05 | 0.05 to 0.1 |  |  | 
N[C@@H](CCC(=O)N1CCC(Nc2nc(NCc3noc(CCCNCCCNC4CCCCC4)n3)nc3ccccc23)CC1)C(=O)O [Compound 33] |  | 0.05 to 0.15 | 0.05 to 0.1 |  |  | 
N[C@@H](CCC(=O)N1CCC(Nc2nc(NCc3nnc(CCCNCCCNC4CCCCC4)o3)nc3ccccc23)CC1)C(=O)O [Compound 34] |  | 0.05 to 0.15 | 0.05 to 0.1 |  |  | 
N[C@@H](CCC(=O)N1CCC(Nc2nc(NCc3nnc(CCCNCCCNC4CCCCC4)s3)nc3ccccc23)CC1)C(=O)O [Compound 35] |  | < 0.05 | 0.05 to 0.1 | 15 | 22 | 
N[C@@H](CCC(=O)N1CCC(Nc2nc(NCc3nnn(CCCNCCCNC4CCCCC4)n3)nc3ccccc23)CC1)C(=O)O [Compound 37] |  | < 0.05 | 0.05 to 0.1 |  |  | 
N[C@@H](CCC(=O)N1CCC(Nc2nc(NCc3nnc(CCCNCCCNC4CCCCC4)[nH]3)nc3ccccc23)CC1)C(=O)O [Compound 38] |  | < 0.05 | 0.05 to 0.1 |  |  | 
Cc1cc(NC2CCN(C(=O)CCNCC(=O)O)CC2)nc(NCc2cc(CCCNCCCNC3CCCCC3)on2)n1 [Compound 39] |  | < 0.05 | 0.05 to 0.1 |  |  | 
Cc1cc(NC2CCN(C(=O)CCNCC(=O)O)CC2)nc(NCc2coc(CCCNCCCNC3CCCCC3)n2)n1 [Compound 40] |  | < 0.05 | < 0.05 | 20 | 36 | mobilize hematopoietic stem cells synergistically
Cc1cc(NC2CCN(C(=O)CCNCC(=O)O)CC2)nc(NCc2nc(CCCNCCCNC3CCCCC3)cs2)n1 [Compound 41] |  | < 0.05 | 0.1 to 1 |  |  | 
Cc1cc(NC2CCN(C(=O)CCNCC(=O)O)CC2)nc(NCc2nnc(CCCNCCCNC3CCCCC3)s2)n1 [Compound 45] |  | < 0.05 | 0.05 to 0.1 | 11 | 10 | mobilize hematopoietic stem cells synergistically
Cc1cc(NC2CCN(C(=O)CCNCC(=O)O)CC2)nc(NCc2nnn(CCCNCCCNC3CCCCC3)n2)n1 [Compound 46] |  | 0.05 to 0.15 | 0.05 to 0.1 | 22 | 22 | 
N[C@@H](CCC(=O)NCCN1CCC(Nc2nc(NCc3cc(CCCNCCCNC4CCCCC4)on3)nc3ccccc23)CC1)C(=O)NCCP(=O)(O)O [Compound 47] |  | < 0.05 | 0.05 to 0.1 |  |  | 
N[C@@H](CCC(=O)NCCN1CCC(Nc2nc(NCc3coc(CCCNCCCNC4CCCCC4)n3)nc3ccccc23)CC1)C(=O)NCCP(=O)(O)O [Compound 48] |  | < 0.05 | 0.05 to 0.1 |  |  | 
N[C@@H](CCC(=O)NCCN1CCC(Nc2nc(NCc3nc(CCCNCCCNC4CCCCC4)cs3)nc3ccccc23)CC1)C(=O)NCCP(=O)(O)O [Compound 49] |  | < 0.05 | 0.05 to 0.1 |  |  | mobilize hematopoietic stem cells synergistically
N[C@@H](CCC(=O)NCCN1CCC(Nc2nc(NCc3nc(CCCNCCCNC4CCCCC4)co3)nc3ccccc23)CC1)C(=O)NCCP(=O)(O)O [Compound 50] |  | 0.05 to 0.15 | 0.05 to 0.1 |  |  | mobilize hematopoietic stem cells synergistically
O=C(O)CNCCCC(=O)N1CCC(Nc2nc(NCc3nnn(CCCNCCCNC4CCCCC4)n3)nc3ccccc23)CC1 [Compound 59] |  | < 0.05 | < 0.05 |  |  | 
O=C(O)CNCCC(=O)N1CCC(Nc2nc(NCc3nnn(CCCNCCCNC4CCCCC4)n3)nc3ccccc23)CC1 [Compound 61] |  | < 0.05 | 0.05 to 0.1 |  |  | 
Cc1cc(NC2CCN(C(=O)CCCNCC(=O)O)CC2)nc(NCc2nnn(CCCNCCCNC3CCCCC3)n2)n1 [Compound 62] |  | < 0.05 | 0.05 to 0.1 |  |  | 
